Measurements from patent publication US20140315901A1, “Arylpyrrolopyridine derived compounds as LRRK2 inhibitors” (H. Lundbeck A/S, priority 2013, published 2014).

How the values were obtained:
LRRK2 G2019S = biological target: T1, LRRK2 G2019S (Homo sapiens, UniProt Q5S007, G2019S); experiment: LanthaScreen TR-FRET LRRK2 G2019S kinase activity assay; assay type: biochemical; conditions: 250 pM LRRK2 G2019S kinase (residues 970 to 2527), 1.3 mM ATP, 0.4 μM fluorescein-LRRKtide, 2 hours at 30° C.; logarithmic average
T1 construct: purchased Invitrogen (Life Technologies Corporation)
T1 sequence (Q5S007 970-2527 G2019S): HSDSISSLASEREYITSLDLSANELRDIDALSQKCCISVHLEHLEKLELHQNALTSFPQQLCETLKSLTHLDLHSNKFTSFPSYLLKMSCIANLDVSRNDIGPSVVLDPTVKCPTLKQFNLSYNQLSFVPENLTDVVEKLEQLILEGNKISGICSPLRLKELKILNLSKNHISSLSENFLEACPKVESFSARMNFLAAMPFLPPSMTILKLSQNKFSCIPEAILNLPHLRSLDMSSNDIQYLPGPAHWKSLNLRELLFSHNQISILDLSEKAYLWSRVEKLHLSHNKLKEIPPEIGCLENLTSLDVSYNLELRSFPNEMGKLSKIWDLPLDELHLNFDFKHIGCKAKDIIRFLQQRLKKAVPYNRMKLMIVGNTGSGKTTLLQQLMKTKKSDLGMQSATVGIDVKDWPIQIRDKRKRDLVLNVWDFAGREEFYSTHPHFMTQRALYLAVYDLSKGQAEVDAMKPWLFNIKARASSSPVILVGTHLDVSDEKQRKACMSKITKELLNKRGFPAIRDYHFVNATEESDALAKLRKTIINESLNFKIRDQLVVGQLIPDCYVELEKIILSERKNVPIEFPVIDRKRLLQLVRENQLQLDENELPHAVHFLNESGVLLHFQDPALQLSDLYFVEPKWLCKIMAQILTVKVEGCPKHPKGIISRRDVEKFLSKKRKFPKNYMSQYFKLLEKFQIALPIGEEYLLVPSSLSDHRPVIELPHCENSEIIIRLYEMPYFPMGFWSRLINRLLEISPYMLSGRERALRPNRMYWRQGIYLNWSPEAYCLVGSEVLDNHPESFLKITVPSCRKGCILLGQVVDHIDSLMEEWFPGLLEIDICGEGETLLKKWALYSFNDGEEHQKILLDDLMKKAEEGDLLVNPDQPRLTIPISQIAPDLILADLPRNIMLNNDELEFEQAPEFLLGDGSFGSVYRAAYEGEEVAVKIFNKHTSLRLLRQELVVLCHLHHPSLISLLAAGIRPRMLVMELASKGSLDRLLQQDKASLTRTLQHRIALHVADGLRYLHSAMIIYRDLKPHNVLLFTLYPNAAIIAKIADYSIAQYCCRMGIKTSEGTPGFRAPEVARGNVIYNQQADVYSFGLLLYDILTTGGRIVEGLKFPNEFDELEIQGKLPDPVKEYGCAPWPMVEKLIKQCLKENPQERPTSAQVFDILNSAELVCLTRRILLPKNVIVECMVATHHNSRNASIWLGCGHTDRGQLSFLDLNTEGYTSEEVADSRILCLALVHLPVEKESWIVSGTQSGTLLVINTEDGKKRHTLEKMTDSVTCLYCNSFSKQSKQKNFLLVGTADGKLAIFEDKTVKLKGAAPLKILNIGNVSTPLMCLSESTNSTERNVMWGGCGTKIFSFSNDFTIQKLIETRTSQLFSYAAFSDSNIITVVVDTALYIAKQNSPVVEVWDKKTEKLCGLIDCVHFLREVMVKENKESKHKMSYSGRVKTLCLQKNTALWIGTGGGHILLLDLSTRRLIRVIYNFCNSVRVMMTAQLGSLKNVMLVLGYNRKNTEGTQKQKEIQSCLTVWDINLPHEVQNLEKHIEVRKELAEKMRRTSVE
Experimental: (§1) LRRK2 kinase activity is measured using a LanthaScreen kinase activity assay available from Invitrogen (Life Technologies Corporation). The assay is a homogeneous time resolved-fluorescence resonance energy transfer (TR-FRET) assay that measures phosphorylation of a fluorescein-labelled peptide substrate (fluorescein-LRRKtide, fluorescein-[…]) (SEQ ID NO 1) as a result of LRRK2 kinase activity. The phosphorylated peptide is recognized by a terbium-labelled phospho-specific anti-LRRKtide antibody and, subsequently, the phosphorylated LRRKtide can be quantified by the extent of TR-FRET between the terbium donor and fluorescein acceptor.
(§2) The LRRK2 kinase is obtained from Invitrogen (Life Technologies Corporation) and comprises residues 970 to 2527 of the full length human wild-type LRRK2 kinase or a similar sequence with the G2019S mutation. As discussed above, this mutation increases the kinase activity relative to the wild-type. The kinase reactions are performed in a 20 μL volume in 384-well plates. The kinase reaction buffer consists of 50 mM Tris pH 8.5, 0.01% BRIJ-35, 10 mM MgCl2, 1 mM EGTA, and 2 mM DTT.
(§3) In the assay, 1 nM LRRK2 WT or 250 pM LRRK2 G2019S kinase is incubated with the test compound (typically at 0 to 30 μM) for 30 minutes before the kinase reaction is initiated by addition of 1.3 mM ATP and 0.4 μM fluorescein-LRRKtide. The reaction mixture (20 μl total volume) is incubated for 2 hours at 30° C. before the reaction is terminated by addition of 10 mM EDTA and 1 nM terbium-labelled anti-phospho-LRRKtide antibody (final volume […]). The mixture is further incubated for 30 minutes at RT. TR-FRET is measured by excitation of the terbium-donor with 340 nm light and subsequent (delay time 100 μs) measurement of terbium and fluorescein emission at 495 nm and 520 nm, respectively, over a time window of 1000 μs. The measurement is repeated 10 times for fluorescein and 10 times for terbium emission with a 2000 μs time window between repeats. TR-FRET measurements are performed on a Biomek Synergy plate. The TR-FRET signal is calculated as the emission-ratio at 520 nm over […].
(§4) Test compound potency (IC50) was estimated by nonlinear regression using the sigmoidal dose-response (variable slope) using Xlfit 4 (IDBS, Guildford, Surrey, UK, model 205). y=(A+((B−A)/(1+((C/x)̂D)))), where y is the normalized TR-TRET ratio measurement for a given concentration of test compound, x is the concentration of test compound, A is the estimated efficacy (% inhibition) at infinite compound dilution, and B is the maximal efficacy (% inhibition). C is the IC50 value and D is the Hill slope coefficient. IC50 estimates were obtained from independent experiment and the logarithmic average was calculated.

LRRK2 WT = biological target: T2, LRRK2 WT (Homo sapiens, UniProt Q5S007); experiment: LanthaScreen TR-FRET LRRK2 wild-type kinase activity assay; assay type: biochemical; conditions: 1 nM LRRK2 WT kinase (residues 970 to 2527), 1.3 mM ATP, 0.4 μM fluorescein-LRRKtide, 2 hours at 30° C.; logarithmic average
T2 construct: comprises residues 970 to 2527 of the full length human wild-type LRRK2 kinase; purchased Invitrogen (Life Technologies Corporation)
T2 sequence (Q5S007 970-2527): as the sequence (Q5S007 970-2527 G2019S) above, with S1050G counted along it
Experimental: as §1, §2, §3, §4

Compound	IC50 (LRRK2 G2019S) [µM]	IC50 (LRRK2 WT) [µM]
COc1cccc(-c2ccnc3[nH]cc(C#N)c23)c1 [Example 1, 4-(3-Methoxyphenyl)-1H-pyrrolo[2,3-b]pyridine-3-carbonitrile]	0.201	0.247
Cc1cccc(-c2ccnc3[nH]cc(C#N)c23)c1 [Example 2, 4-(3-Methylphenyl)-1H-pyrrolo[2,3-b]pyridine-3-carbonitrile]	0.195	0.17
CCc1cccc(-c2ccnc3[nH]cc(C#N)c23)c1 [Example 3, 4-(3-Ethylphenyl)-1H-pyrrolo[2,3-b]pyridine-3-carbonitrile]	0.252	0.266
N#Cc1c[nH]c2nccc(-c3ccsc3)c12 [Example 4, 4-(Thiophen-3-yl)-1H-pyrrolo[2,3-b]pyridine-3-carbonitrile]	0.851	1.28
N#Cc1c[nH]c2nccc(-c3ccc(CN4CCOCC4)cc3)c12 [Example 5, 4-[4-(Morpholin-4-ylmethyl)phenyl]-1H-pyrrolo[2,3-b]pyridine-3-carbonitrile]	1.31	5.44
N#Cc1c[nH]c2nccc(-c3ccn(CN4CCOCC4)c3)c12 [Example 6, 4-[1-(Morpholin-4-ylmethyl)pyrrol-3-yl]-1H-pyrrolo[2,3-b]pyridine-3-carbonitrile]	0.65	3.87
Cc1cc(-c2ccnc3[nH]cc(C#N)c23)ccc1CN1CCOCC1 [Example 7, 4-[3-Methyl-4-(morpholin-4-ylmethyl)phenyl]-1H-pyrrolo[2,3-b]pyridine-3-carbonitrile]	0.078	0.62
Cc1cc(-c2ccnc3[nH]cc(C#N)c23)ccc1CN(C)C [Example 8, 4-{4-[(Dimethylamino)methyl]-3-methylphenyl}-1H-pyrrolo[2,3-b]pyridine-3-carbonitrile]	0.288	0.549
CCc1cc(-c2ccnc3[nH]cc(C#N)c23)ccc1CN1CCOCC1 [Example 9, 4-[3-Ethyl-4-(morpholin-4-ylmethyl)phenyl]-1H-pyrrolo[2,3-b]pyridine-3-carbonitrile]	0.026	0.149
COc1cc(-c2ccnc3[nH]cc(C#N)c23)ccc1CN1CCOCC1 [Example 10, 4-[3-Methoxy-4-(morpholin-4-ylmethyl)phenyl]-1H-pyrrolo[2,3-b]pyridine-3-carbonitrile]	0.154	0.919
N#Cc1c[nH]c2nc(N)cc(-c3ccccc3)c12 [Example 11, 6-Amino-4-phenyl-1H-pyrrolo[2,3-b]pyridine-3-carbonitrile]	0.24	0.216
Cc1cccc(-c2cc(N)nc3[nH]cc(C#N)c23)c1 [Example 12, 6-Amino-4-(3-methylphenyl)-1H-pyrrolo[2,3-b]pyridine-3-carbonitrile]	0.017	0.015
Cn1ccc(Nc2cc(-c3ccccc3)c3c(C#N)c[nH]c3n2)n1 [Example 13, 6-[(1-Methylpyrazol-3-yl)amino]-4-phenyl-1H-pyrrolo[2,3-b]pyridine-3-carbonitrile]	0.058	0.048
Cc1cccc(-c2cc(Nc3ccn(C)n3)nc3[nH]cc(C#N)c23)c1 [Example 14, 4-(3-Methylphenyl)-6-[(1-methylpyrazol-3-yl)amino]-1H-pyrrolo[2,3-b]pyridine-3-carbonitrile]	0.002	0.001
Cc1cc(-c2cc(Nc3ccn(C)n3)nc3[nH]cc(C#N)c23)ccc1CN1CCOCC1 [Example 15, 4-[3-Methyl-4-(morpholin-4-ylmethyl)phenyl]-6-[(1-methylpyrazol-3-yl)amino]-1H-pyrrolo[2,3-b]pyridine-3-carbonitrile]	0.001	0.004
Cn1cc(Nc2cc(-c3ccccc3)c3c(C#N)c[nH]c3n2)cn1 [Example 16, 6-[(1-Methylpyrazol-4-yl)amino]-4-phenyl-1H-pyrrolo[2,3-b]pyridine-3-carbonitrile]	0.164	0.097
N#Cc1c[nH]c2nc(Nc3ccccn3)cc(-c3ccccc3)c12 [Example 17, 4-Phenyl-6-(pyridin-2-ylamino)-1H-pyrrolo[2,3-b]pyridine-3-carbonitrile]	0.527	0.34
Cc1cncc(-c2cc(Nc3nn(C)cc3C(F)(F)F)nc3[nH]cc(C#N)c23)c1 [Example 18, 6-{[1-Methyl-4-(trifluoromethyl)-1H-pyrazol-3-yl]amino}-4-(5-methylpyridin-3-yl)-1H-pyrrolo[2,3-b]pyridine-3-carbonitrile]	0.509	0.358
Cc1ccnc(-c2cc(Nc3nn(C)cc3Cl)nc3[nH]cc(C#N)c23)c1 [Example 19, 6-[(4-Chloro-1-methyl-1H-pyrazol-3-yl)amino]-4-(4-methylpyridin-2-yl)-1H-pyrrolo[2,3-b]pyridine-3-carbonitrile]	0.215	0.145
Cc1cccc(-c2cc(Nc3nn(C)cc3C)nc3[nH]cc(C#N)c23)n1 [Example 20, 6-[(1,4-Dimethyl-1H-pyrazol-3-yl)amino]-4-(6-methylpyridin-2-yl)-1H-pyrrolo[2,3-b]pyridine-3-carbonitrile]	0.05	0.036
Cc1cccc(-c2cc(Nc3nn(C)cc3C(F)(F)F)nc3[nH]cc(C#N)c23)n1 [Example 21, 6-{[1-Methyl-4-(trifluoromethyl)-1H-pyrazol-3-yl]amino}-4-(6-methylpyridin-2-yl)-1H-pyrrolo[2,3-b]pyridine-3-carbonitrile]	0.575	0.393
Cc1cncc(-c2cc(Nc3ccn(C)n3)nc3[nH]cc(C#N)c23)c1 [Example 22, 6-[(1-Methyl-1H-pyrazol-3-yl)amino]-4-(5-methylpyridin-3-yl)-1H-pyrrolo[2,3-b]pyridine-3-carbonitrile]	0.037	0.027
Cc1cc(-c2cc(Nc3nn(C)cc3C)nc3[nH]cc(C#N)c23)ccn1 [Example 23, 6-[(1,4-Dimethyl-1H-pyrazol-3-yl)amino]-4-(2-methylpyridin-4-yl)-1H-pyrrolo[2,3-b]pyridine-3-carbonitrile]	0.108	0.215
